ChEMBL document CHEMBL1144985, “Rational design, synthesis and structure-activity relationships of a cyclic succinate series of TNF-alpha converting enzyme inhibitors. Part 2: lead optimization” (Bioorg Med Chem Lett, 2003)

Target: Matrix metalloproteinase-9 (Homo sapiens, UniProt P14780)
Assay: Inhibitory activity against matrix metalloprotease-9 (MMP-9)

Chain of Matrix metalloproteinase-9 (P14780 whole entry): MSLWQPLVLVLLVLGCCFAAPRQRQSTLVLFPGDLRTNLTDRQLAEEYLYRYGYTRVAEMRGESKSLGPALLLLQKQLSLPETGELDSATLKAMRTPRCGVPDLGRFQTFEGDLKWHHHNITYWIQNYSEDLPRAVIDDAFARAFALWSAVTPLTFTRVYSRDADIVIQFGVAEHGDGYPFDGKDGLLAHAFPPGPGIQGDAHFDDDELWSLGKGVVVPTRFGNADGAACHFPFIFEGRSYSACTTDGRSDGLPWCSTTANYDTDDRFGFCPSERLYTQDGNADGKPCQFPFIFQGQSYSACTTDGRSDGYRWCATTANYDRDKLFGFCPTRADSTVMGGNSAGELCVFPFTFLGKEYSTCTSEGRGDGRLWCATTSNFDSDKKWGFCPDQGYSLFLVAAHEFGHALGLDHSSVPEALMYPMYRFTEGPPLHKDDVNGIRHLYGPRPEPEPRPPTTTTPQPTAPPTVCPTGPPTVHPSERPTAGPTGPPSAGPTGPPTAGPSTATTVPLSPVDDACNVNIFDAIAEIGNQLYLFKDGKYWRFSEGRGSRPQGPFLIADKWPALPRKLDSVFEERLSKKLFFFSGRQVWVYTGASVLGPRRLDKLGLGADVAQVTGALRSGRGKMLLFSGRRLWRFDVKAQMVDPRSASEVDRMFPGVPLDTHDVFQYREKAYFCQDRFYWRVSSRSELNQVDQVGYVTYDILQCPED

SMILES | Ki [nM]
Cc1cc(COc2ccc(NC(=O)[C@H]3CCN(C(=O)OCc4nccs4)C[C@@H]3C(=O)NO)cc2)c2ccccc2n1 | 768
Cc1cc(COc2ccc(NC(=O)[C@H]3CN(CC4CC4)CC[C@@H]3C(=O)NO)cc2)c2ccccc2n1 | > 2130
Cc1cc(COc2ccc(NC(=O)[C@H]3CCN(C(=O)OCc4cscn4)C[C@@H]3C(=O)NO)cc2)c2ccccc2n1 | 296
CC(=O)N1CC[C@H](C(=O)Nc2ccc(COc3ccnc4ccccc34)cc2)[C@@H](C(=O)NO)C1 | > 2130
Cc1cc(COc2ccc(NC(=O)[C@H]3CCNC[C@@H]3C(=O)NO)cc2)c2ccccc2n1 | > 2130
Cc1cc(COc2ccc(NC(=O)[C@H]3CCN(C4CCC4)C[C@@H]3C(=O)NO)cc2)c2ccccc2n1 | > 2130
O=C(NO)[C@H]1CN(C(=O)C2CC2)CC[C@@H]1C(=O)Nc1ccc(COc2ccnc3ccccc23)cc1 | > 2130
Cc1cc(COc2ccc(NC(=O)[C@H]3CCN(C(=O)OC(C)C)C[C@@H]3C(=O)NO)cc2)c2ccccc2n1 | 252

Test system: not listed separately
Assay: Solubility was determined

solubility [µg/mL] | SMILES
> 10000 | Cc1cc(COc2ccc(NC(=O)[C@H]3CN(CC4CC4)CC[C@@H]3C(=O)NO)cc2)c2ccccc2n1
> 10000 | Cc1cc(COc2ccc(NC(=O)[C@H]3CCNC[C@@H]3C(=O)NO)cc2)c2ccccc2n1

SMILES | solubility [µg/mL]
Cc1cc(COc2ccc(NC(=O)[C@H]3CCN(C4CCC4)C[C@@H]3C(=O)NO)cc2)c2ccccc2n1 | > 10000

Target: T1, Interstitial collagenase (Homo sapiens, UniProt P03956)
T1 sequence (P03956 whole entry): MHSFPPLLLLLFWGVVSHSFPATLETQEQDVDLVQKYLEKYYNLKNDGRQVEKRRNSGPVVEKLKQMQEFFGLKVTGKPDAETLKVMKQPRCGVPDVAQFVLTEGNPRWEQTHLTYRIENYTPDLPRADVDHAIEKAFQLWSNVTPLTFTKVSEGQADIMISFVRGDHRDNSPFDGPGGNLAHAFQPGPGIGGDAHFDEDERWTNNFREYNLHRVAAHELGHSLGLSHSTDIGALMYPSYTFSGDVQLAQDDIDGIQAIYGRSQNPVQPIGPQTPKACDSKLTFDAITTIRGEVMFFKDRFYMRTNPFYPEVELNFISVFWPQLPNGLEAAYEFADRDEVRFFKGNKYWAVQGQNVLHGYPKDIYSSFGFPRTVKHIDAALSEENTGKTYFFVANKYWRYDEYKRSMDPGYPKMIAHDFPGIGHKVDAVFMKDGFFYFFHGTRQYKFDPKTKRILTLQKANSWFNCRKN
Assay: Inhibitory activity against matrix metalloprotease-1 (MMP-1)

SMILES | Ki [nM]
Cc1cc(COc2ccc(NC(=O)[C@H]3CCN(C(=O)OCc4nccs4)C[C@@H]3C(=O)NO)cc2)c2ccccc2n1 | > 4950
Cc1cc(COc2ccc(NC(=O)[C@H]3CN(CC4CC4)CC[C@@H]3C(=O)NO)cc2)c2ccccc2n1 | > 4950
Cc1cc(COc2ccc(NC(=O)[C@H]3CCN(C(=O)OCc4cscn4)C[C@@H]3C(=O)NO)cc2)c2ccccc2n1 | > 4950
CC(=O)N1CC[C@H](C(=O)Nc2ccc(COc3ccnc4ccccc34)cc2)[C@@H](C(=O)NO)C1 | > 4950
Cc1cc(COc2ccc(NC(=O)[C@H]3CCNC[C@@H]3C(=O)NO)cc2)c2ccccc2n1 | > 4950
Cc1cc(COc2ccc(NC(=O)[C@H]3CCN(C4CCC4)C[C@@H]3C(=O)NO)cc2)c2ccccc2n1 | > 4950
O=C(NO)[C@H]1CN(C(=O)C2CC2)CC[C@@H]1C(=O)Nc1ccc(COc2ccnc3ccccc23)cc1 | > 4950
Cc1cc(COc2ccc(NC(=O)[C@H]3CCN(C(=O)OC(C)C)C[C@@H]3C(=O)NO)cc2)c2ccccc2n1 | > 4950

Target: 72 kDa type IV collagenase (Homo sapiens, UniProt P08253)
Assay: Inhibitory activity against matrix metalloprotease-2 (MMP-2)

Chain of 72 kDa type IV collagenase (P08253 whole entry): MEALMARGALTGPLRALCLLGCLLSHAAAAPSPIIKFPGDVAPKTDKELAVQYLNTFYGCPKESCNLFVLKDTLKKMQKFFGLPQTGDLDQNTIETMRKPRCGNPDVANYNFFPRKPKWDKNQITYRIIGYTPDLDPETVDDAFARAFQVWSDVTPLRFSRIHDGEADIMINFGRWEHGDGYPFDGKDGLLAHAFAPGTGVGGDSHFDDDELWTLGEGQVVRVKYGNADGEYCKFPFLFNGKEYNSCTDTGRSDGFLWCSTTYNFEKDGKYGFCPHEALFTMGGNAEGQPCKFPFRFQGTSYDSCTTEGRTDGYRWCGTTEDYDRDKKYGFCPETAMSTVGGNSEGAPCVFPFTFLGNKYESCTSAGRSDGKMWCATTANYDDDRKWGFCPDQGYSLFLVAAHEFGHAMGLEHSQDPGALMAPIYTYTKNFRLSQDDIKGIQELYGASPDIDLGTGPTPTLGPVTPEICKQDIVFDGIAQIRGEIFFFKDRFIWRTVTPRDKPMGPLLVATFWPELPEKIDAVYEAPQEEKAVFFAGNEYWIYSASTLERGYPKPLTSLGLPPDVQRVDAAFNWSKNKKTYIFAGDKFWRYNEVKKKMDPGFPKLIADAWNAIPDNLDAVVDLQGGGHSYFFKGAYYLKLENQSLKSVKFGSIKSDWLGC

SMILES | Ki [nM]
Cc1cc(COc2ccc(NC(=O)[C@H]3CCN(C(=O)OCc4nccs4)C[C@@H]3C(=O)NO)cc2)c2ccccc2n1 | 1540
Cc1cc(COc2ccc(NC(=O)[C@H]3CN(CC4CC4)CC[C@@H]3C(=O)NO)cc2)c2ccccc2n1 | > 3330
Cc1cc(COc2ccc(NC(=O)[C@H]3CCN(C(=O)OCc4cscn4)C[C@@H]3C(=O)NO)cc2)c2ccccc2n1 | 476
CC(=O)N1CC[C@H](C(=O)Nc2ccc(COc3ccnc4ccccc34)cc2)[C@@H](C(=O)NO)C1 | > 3330
Cc1cc(COc2ccc(NC(=O)[C@H]3CCNC[C@@H]3C(=O)NO)cc2)c2ccccc2n1 | > 3330
Cc1cc(COc2ccc(NC(=O)[C@H]3CCN(C4CCC4)C[C@@H]3C(=O)NO)cc2)c2ccccc2n1 | > 3330
O=C(NO)[C@H]1CN(C(=O)C2CC2)CC[C@@H]1C(=O)Nc1ccc(COc2ccnc3ccccc23)cc1 | > 3330
Cc1cc(COc2ccc(NC(=O)[C@H]3CCN(C(=O)OC(C)C)C[C@@H]3C(=O)NO)cc2)c2ccccc2n1 | 771

Organism: Homo sapiens
Assay: In vitro inhibition of TNF-alpha production was determined by using LPS-stimulated human whole blood assay (WBA)
Assay type: functional

SMILES | IC50 [nM]
Cc1cc(COc2ccc(NC(=O)[C@H]3CCN(C(=O)OCc4nccs4)C[C@@H]3C(=O)NO)cc2)c2ccccc2n1 | 450
Cc1cc(COc2ccc(NC(=O)[C@H]3CN(CC4CC4)CC[C@@H]3C(=O)NO)cc2)c2ccccc2n1 | 300
Cc1cc(COc2ccc(NC(=O)[C@H]3CCN(C(=O)OCc4cscn4)C[C@@H]3C(=O)NO)cc2)c2ccccc2n1 | 530
CC(=O)N1CC[C@H](C(=O)Nc2ccc(COc3ccnc4ccccc34)cc2)[C@@H](C(=O)NO)C1 | 560
Cc1cc(COc2ccc(NC(=O)[C@H]3CCNC[C@@H]3C(=O)NO)cc2)c2ccccc2n1 | 4300
Cc1cc(COc2ccc(NC(=O)[C@H]3CCN(C4CCC4)C[C@@H]3C(=O)NO)cc2)c2ccccc2n1 | 1100
O=C(NO)[C@H]1CN(C(=O)C2CC2)CC[C@@H]1C(=O)Nc1ccc(COc2ccnc3ccccc23)cc1 | 710
Cc1cc(COc2ccc(NC(=O)[C@H]3CCN(C(=O)OC(C)C)C[C@@H]3C(=O)NO)cc2)c2ccccc2n1 | 210

Target: Disintegrin and metalloproteinase domain-containing protein 17 (Sus scrofa, UniProt O77636)
Assay: In vitro binding affinity against porcine TACE

Chain of Disintegrin and metalloproteinase domain-containing protein 17 (O77636 whole entry, the tested form may be a part): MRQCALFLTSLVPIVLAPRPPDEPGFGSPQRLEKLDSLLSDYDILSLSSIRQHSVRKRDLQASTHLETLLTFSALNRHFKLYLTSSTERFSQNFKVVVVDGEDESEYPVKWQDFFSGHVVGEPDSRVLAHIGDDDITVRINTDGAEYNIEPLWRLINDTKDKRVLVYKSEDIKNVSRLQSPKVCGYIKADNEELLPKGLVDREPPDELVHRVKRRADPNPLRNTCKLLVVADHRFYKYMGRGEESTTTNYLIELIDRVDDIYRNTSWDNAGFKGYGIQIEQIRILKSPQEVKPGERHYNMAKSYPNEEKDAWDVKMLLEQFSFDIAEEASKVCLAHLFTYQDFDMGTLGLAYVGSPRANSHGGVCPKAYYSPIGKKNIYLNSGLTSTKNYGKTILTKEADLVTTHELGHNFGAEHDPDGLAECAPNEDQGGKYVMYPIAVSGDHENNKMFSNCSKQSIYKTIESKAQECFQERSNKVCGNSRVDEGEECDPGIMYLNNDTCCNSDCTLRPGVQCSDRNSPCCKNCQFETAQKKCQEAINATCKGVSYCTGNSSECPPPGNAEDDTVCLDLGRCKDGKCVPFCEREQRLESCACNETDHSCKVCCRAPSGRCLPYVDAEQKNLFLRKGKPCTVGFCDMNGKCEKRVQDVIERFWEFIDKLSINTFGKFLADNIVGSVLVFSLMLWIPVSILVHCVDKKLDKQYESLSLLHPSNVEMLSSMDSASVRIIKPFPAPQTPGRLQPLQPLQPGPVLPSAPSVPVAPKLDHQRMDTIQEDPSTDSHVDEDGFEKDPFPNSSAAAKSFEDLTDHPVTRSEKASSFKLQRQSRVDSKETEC

SMILES | IC50 [nM]
Cc1cc(COc2ccc(NC(=O)[C@H]3CCN(C(=O)OCc4nccs4)C[C@@H]3C(=O)NO)cc2)c2ccccc2n1 | < 0.3
Cc1cc(COc2ccc(NC(=O)[C@H]3CN(CC4CC4)CC[C@@H]3C(=O)NO)cc2)c2ccccc2n1 | 1
Cc1cc(COc2ccc(NC(=O)[C@H]3CCN(C(=O)OCc4cscn4)C[C@@H]3C(=O)NO)cc2)c2ccccc2n1 | < 0.3
CC(=O)N1CC[C@H](C(=O)Nc2ccc(COc3ccnc4ccccc34)cc2)[C@@H](C(=O)NO)C1 | 1
Cc1cc(COc2ccc(NC(=O)[C@H]3CCNC[C@@H]3C(=O)NO)cc2)c2ccccc2n1 | 1.5
Cc1cc(COc2ccc(NC(=O)[C@H]3CCN(C4CCC4)C[C@@H]3C(=O)NO)cc2)c2ccccc2n1 | 1.6
O=C(NO)[C@H]1CN(C(=O)C2CC2)CC[C@@H]1C(=O)Nc1ccc(COc2ccnc3ccccc23)cc1 | 2
Cc1cc(COc2ccc(NC(=O)[C@H]3CCN(C(=O)OC(C)C)C[C@@H]3C(=O)NO)cc2)c2ccccc2n1 | 0.44
